System: soil microbials (fungi and bacteria)
Test: Peach orchard field trial: soil fungal and bacterial abundance (16S rRNA / ITS sequencing, PCA)
Type: in vivo
Settings: applied in 110 mL water within 15 cm of tree trunk plus 190 mL water, extract 34 HCE about 16x diluted (0.0625xHCE), 300,000 IJs per tree
Text: The pheromone can be extracted with alcohol in a concentration range from about 0% to about 95%. The liquid (supernatant) may be removed and concentrated to produce a dry extract by using a stream of nitrogen, by rotary evaporation, by lyophilization, or by any equivalent means. The dry powder may be resuspended in water and centrifuged to separate insoluble debris from water-soluble pheromones. For storage the supernatant may be concentrated to dryness using a lyophilizer, a spray drier, or any equivalent means. The concentration and ratio of the pheromone mixture was evaluated for its activity on plants. […] In addition, for example, one insect host cadaver extract from Galleria mellonella (average weight of G. mellonella larvae, wax worm, is estimated to be approximately 232+/−57 mg) is diluted in 200 μL water which is physiologically relevant concentration as 1×HCE. When one insect host cadaver extract from Galleria mellonella is resuspended in 3200 μL (about 16 times dilution or 0.0625×HCE). Total 34 HCE S. carpocapsae pheromone extracts with 300,000 S. carpocapsae IJs in 110 mL of water in 15 cm soil surrounding the tree trunk. Then an additional 190 mL of water was added to the 15 cm of soil surrounding the tree trunk. […]

## CCOP(=S)(OCC)Oc1nc(Cl)c(Cl)cc1Cl [Chlorpyrifos]
  time for which soil microbials were promoted / soil microbial abundance increased: ≤ 2 weeks

Reference: patent publication US12653194B2, “Compositions and methods for promoting soil microbials for plant health and stress tolerance” (The United States of America, as represented by The …, priority 2021, dated 2026)
